Values belong to the compound of their own block, whether it stands above or below them.
Legend:
[1] = target: T1, dipeptidyl peptidase IV (DPPIV) (CD26) (Rattus norvegicus, UniProt P14740); test: cell-based; type: cell-based; conditions: for mode of inhibition of DPPIV: individual living rat hepatocytes, image analysis
T1 construct: individual freshly isolated living rat hepatocytes; endogenous in cells; host or cells: hepatocytes freshly isolated from livers of male Wistar rats
Protocol: Hepatocytes were isolated by collagenase perfusion of livers of male Wistar rats (200-250 g; HSD Animal Farm, Zeist, The Netherlands) after 24 h of starvation as described previously (30). The animals were exposed to a controlled dark-light cycle (light: 7:00 a.m.-7:00 p.m.) throughout the acclimatization period of at least 1 week. Before starvation, animals had free access to food (standard chow diet; Hope Farms, Woerden, The Netherlands) and water. The animals had always free access to water. During operation, the animals were under Nembutal anaesthesia. Animal care was performed according to the guidelines of the University of Amsterdam. Hepatocytes (5-10 mg dry mass/ml) were kept in Krebs-Henseleit bicarbonate medium containing 1.3 mM Ca^2+, 10 mM sodium Hepes (pH 7.4), 20 mM glucose and 1 mM octanoate on ice until enzyme assays. Homogenates were prepared by freezing cell suspensions in liquid nitrogen and subsequent thawing. One volume of homogenates and 10 volumes of 20 mM Tris-HCI buffer (pH 7.4) containing 1% (v/v) Triton X-100 were mixed and incubated at 4° C. under constant stirring for 60 min. One part of these homogenates was used for the determination of DPPIV activity. Another part was centrifuged (40,000 x g, 4° C., 20 min) and the supernatants were used as membrane fractions for the determination of DPPIV activity.
Analysis of DPPIV Activity
DPPIV activity was determined in hepatocytes using 6 approaches. Activity was determined in living hepatocytes with confocal scanning laser microscopy, image processing and analysis, flow cytometry, and fluorometry. Fluorometry was also used for the determination of activity in homogenates of hepatocytes and in membrane fractions of hepatocytes. Incubations were started at t=0 by adding an aliquot of 60 μl hepatocytes to 3 ml Krebs-Henseleit medium containing 0-50 μM (Ala-Pro)^2 -cresyl violet in the presence or absence of 0-50 μM Ala-Pip^p (OPh-4-Cl)2 (Enzyme Systems Products), which is a selective DPPIV inhibitor (31A,32A). Substrate and inhibitor were dissolved first in dimethylsulfoxide. The final concentration of dimethylsulfoxide in the incubation medium was 0.5% (v/v). Incubations were carried out at 20° C. Confocal scanning laser microscopy was performed after 100 μl of an assay medium containing hepatocytes was brought into a well formed by a stainless steel ring attached to a glass slide (33A). Images of cells were captured in time with a Leica confocal scanning laser microscope fitted to a Leica Fluovert inverted microscope equipped with a PL APO oil-immersion objective (63×, NA 1.40). Excitation was performed at 568 nm and fluorescence was captured at >595 nm. The pinhole aperture was set to provide an optimized image (34A). Cells were subjected to optical serial sectioning after each 60 sec of incubation up to 300 sec. Images in the X-Y plane were recorded with intervals of 0.5 μm in the Z direction. Each optical section was averaged 8 times. Images were recorded din a 512×512 pixel format. The size of each pixel represented 0.015 μm^2 in the object. Confocal data stacks of 20-30 optical sections were processed with standard Leica software package.
Image analysis was performed by transferring an aliquot of 100, μl of an incubation medium containing hepatocytes into an incubation chamber that consisted of an object glass and a cover glass separated by a spacer made of adhesion tape with a thickness of […]. The object glass was set on the stage of a fluorescencee microscope (Leitz Dialux 20, Wetzlar, Germany) with a ×25 objective (NA 0.75). A drop of medium was placed beside the cover glass and the chamber became filled by capillary forces in a few seconds. […]

[2] = test system: dipeptidyl peptidase IV (DPPIV); test: DPPIV activity in membrane fractions of hepatocytes (fluorometry); type: biochemical, rat; conditions: membrane fractions of the same hepatocyte suspensions
Protocol: Hepatocytes were isolated by collagenase perfusion of livers of male Wistar rats (200-250 g; HSD Animal Farm, Zeist, The Netherlands) after 24 h of starvation as described previously (30). The animals were exposed to a controlled dark-light cycle (light: 7:00 a.m.-7:00 p.m.) throughout the acclimatization period of at least 1 week. Before starvation, animals had free access to food (standard chow diet; Hope Farms, Woerden, The Netherlands) and water. The animals had always free access to water. During operation, the animals were under Nembutal anaesthesia. Animal care was performed according to the guidelines of the University of Amsterdam. […]
DPPIV activity was determined in hepatocytes using 6 approaches. Activity was determined in living hepatocytes with confocal scanning laser microscopy, image processing and analysis, flow cytometry, and fluorometry. […] Excitation was performed at 568 nm and fluorescence was captured at >595 nm. […] Images in the X-Y plane were recorded with intervals of 0.5 μm in the Z direction. […] Images were recorded din a 512×512 pixel format. […]
Calibration was performed by measuring fluorescence of a series of solutions of 0-10 μM cresyl violet in Krebs-Henseleit medium. These solutions were also used to test the properties of cresyl violet for quantitative purposes. The depth of the incubation chamber was 24 μm and the size of the area measured 240×170 μm. […]

[3] = Fluorescence properties of cresyl violet (image analysis calibration); type: physicochemical
Protocol: Calibration was performed by measuring fluorescence of a series of solutions of 0-10 μM cresyl violet in Krebs-Henseleit medium. These solutions were also used to test the properties of cresyl violet for quantitative purposes. The depth of the incubation chamber was 24 μm and the size of the area measured 240×170 μm. The total volume that was measured was thus 0.001 μl. The amount of fluorescence captured by image analysis was linearly related with concentrations up to at least 10 μM when measured in a thin film of 24 μm which approximates the diameter of cells (FIG. 2A). Thus, cresyl violet has fluorescence properties that are necessary for quantitative fluorescence microscopy (36B). On the basis of FIG. 2A, it was calculated that 100 gray values corresponded with 6.7 fmoles cresyl violet. […] Flow cytometric analysis of production of cresyl violet in hepatorcytes was performed with a FAC-Star Plus (Becton and Dickinson, San Jose, Calif., USA) using the software program CellQuest (version 1.0; Becton and Dicksinson). Prior to analysis, cells were stained with the DNA dye Hoechst 3.3.3.4.2 (36 ,μg/ml; Hoechst Holland, Amsterdam, The Netherlands) for 30 min at 0° C. Analysis was started by established forward scatter and then substrate was added at t=0. Analysis was performed at a flow rate of 200 cells/sec. The parameters measured were time, forward scatter, fluorescence of Hoechst 3.3.3.4.2 dye (excitation at 350 nm, emission at 485 nm with a band width of 20 nm), and fluorescence of cresyl violet (excitation at 514 nm, emission at 630 nm with a band width of 22 nm). Filters were obtained from Becton and Dickenson. The power of the lasers was set at […]. Fluorometric analysis with time was carried out with a Perkin-Elmer LS 50 fluorescence spectrometer (Perkin-Elmer, Gouda, The Netherlands) under continuous magnetic stirring. Cuvettes with a light path of 1 cm were used. Excitation was performed at 591 nm with a slid width of 10 nm and emission was measured at 628 nm (slid width 10 nm). The first measurement was made at 5 sec after mixing cells and incubation medium.

[4] = Water solubility (stated); type: physicochemical; conditions: free cresyl violet; avoids accumulation around mitochondria

T1 sequence (P14740 whole entry): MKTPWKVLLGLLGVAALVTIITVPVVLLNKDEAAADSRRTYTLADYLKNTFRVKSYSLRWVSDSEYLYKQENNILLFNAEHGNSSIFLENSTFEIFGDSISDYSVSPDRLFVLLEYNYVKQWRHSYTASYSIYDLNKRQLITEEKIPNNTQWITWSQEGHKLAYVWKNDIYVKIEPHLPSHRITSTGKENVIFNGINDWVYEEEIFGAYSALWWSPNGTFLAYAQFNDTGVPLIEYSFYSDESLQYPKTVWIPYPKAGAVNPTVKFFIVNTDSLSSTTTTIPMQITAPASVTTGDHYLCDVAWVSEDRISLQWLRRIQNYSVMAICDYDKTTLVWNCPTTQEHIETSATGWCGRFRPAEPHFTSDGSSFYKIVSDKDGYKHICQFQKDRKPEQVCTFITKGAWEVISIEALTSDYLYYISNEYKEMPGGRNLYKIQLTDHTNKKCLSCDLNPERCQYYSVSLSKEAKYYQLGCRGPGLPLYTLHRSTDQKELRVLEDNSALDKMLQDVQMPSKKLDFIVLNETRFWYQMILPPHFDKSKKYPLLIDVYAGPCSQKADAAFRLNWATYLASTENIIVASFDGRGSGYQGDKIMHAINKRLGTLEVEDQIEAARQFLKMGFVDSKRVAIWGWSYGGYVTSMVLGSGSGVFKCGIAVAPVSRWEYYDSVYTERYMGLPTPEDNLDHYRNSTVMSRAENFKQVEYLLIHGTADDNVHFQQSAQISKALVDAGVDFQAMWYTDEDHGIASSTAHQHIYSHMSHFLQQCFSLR

SMILES: C[C@H](N)C(=O)N1CCCCC1P(=O)(Oc1ccc(Cl)cc1)Oc1ccc(Cl)cc1 (some centres unmarked) [Ala-Pip^p (OPh-4Cl)2, Ala-Pip^p (OPh-4-Cl)2]
Ki [1]: 7 µM | mode of inhibition of DPPIV [1]: selective competitive inhibitor | mode of inhibition of DPPIV ([1]; listed as dipeptide phosphonate inhibitor): competitively

Vmax in individual hepatocytes [1]: 4-16 nU | Km ([1]; hepatocytes): 6 to 22 µM | conversion rate in the rat with the highest Vmax and lowest Km vs rat with the lowest Vmax and highest Km ([1]; physiological substrate concentrations): 10- to 20 fold | inverse relationship between Km and Vmax in membrane fractions [2]: lost
SMILES: C[C@H](N)C(=O)N1CCC[C@H]1C(=O)NC1=CC2Oc3cc(NC(=O)[C@@H]4CCCN4C(=O)[C@H](C)N)ccc3N=C2c2ccccc21 (stereo partly drawn) [Ala-Pro-cresyl violet, [Ala-Pro]^2-cresyl violet]

amount corresponding with 100 gray values ([3]; image analysis calibration, FIG. 2A): 6.7 fmol | linearity of fluorescence with concentration (up to) ([3]; thin film of 24 μm, Krebs-Henseleit medium): at least 10 μM | water solubility [4]: sufficiently water soluble
SMILES: N=c1cc2oc3cc(N)ccc3nc-2c2ccccc12 [cresyl violet]
fading of fluorescence during measurements in time ([3]; FIG. 2B): Fading did not occur to any significant extent

Reference: US6235493A, “Amino acid substituted-cresyl violet, synthetic fluorogenic substrates for the analysis of agents in individual in vivo cells or tissue” (priority 1998, dated 2001)
